Test results reported in PubChem BioAssay AID256 (DTP/NCI, 2004).
“And” between values parts separate entries of the source, which are not always exact repeats. Identical values can stand only once. Inconclusive results and toxic doses are left out.

System: CD2F1 mice, L1210 leukemia ip, survival T/C
Experiment: NCI In Vivo Anticancer Drug Screen. Data for tumor model L1210 Leukemia (intraperitoneal) in CD2F1 (CDF1) mice
Settings: higher = longer survival
How it was run: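 Mice carrying a transplanted tumor received test compound or vehicle alone. The value is the measurement in the treated group divided by that in the vehicle-treated control group.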

[1] = endpoint: mean survival time, dose: 50.0 mg/kg/injection, schedule: Q01DX009 (ip), vehicle: saline
[2] = endpoint: mean survival time, dose: 100.0 mg/kg/injection, schedule: Q01DX009 (ip), vehicle: saline
[3] = endpoint: mean survival time, dose: 200.0 mg/kg/injection, schedule: Q01DX009 (ip), vehicle: saline
[4] = endpoint: mean survival time, dose: 200.0 mg/kg/injection, schedule: Q04DX003 (ip), vehicle: saline

For `Cc1nc(N)[nH]c(=O)c1[N+](=O)[O-]`, the T/C (endpoint: mean survival time, dose: 100.0 mg/kg/injection, schedule: Q04DX003 (ip), vehicle: other) was 108 % of control and the T/C (endpoint: mean survival time, dose: 200.0 mg/kg/injection, schedule: Q04DX003 (ip), vehicle: other) was 113 % of control.
With `CCOC(=O)CN1C(=O)CN=C(c2ccccn2)c2cc(Cl)ccc21` the T/C (endpoint: mean survival time, dose: 100.0 mg/kg/injection, schedule: Q04DX003 (ip), vehicle: saline with Tween-80) was 102 % of control, the T/C (endpoint: mean survival time, dose: 200.0 mg/kg/injection, schedule: Q04DX003 (ip), vehicle: saline with Tween-80) was 89 % of control and the T/C (endpoint: mean survival time, dose: 400.0 mg/kg/injection, schedule: Q04DX003 (ip), vehicle: saline with Tween-80) was 89 % of control.
`CNC(=O)Oc1ccc2c(c1)OCO2` was tested, and the T/C [1] was 96 % of control, the T/C [2] was 112 % of control and the T/C [3] was 100 % of control.
`CC(C)NC(=O)CCSCCC(=O)NC(C)C` was tested, and the T/C (endpoint: mean survival time, dose: 25.0 mg/kg/injection, schedule: Q04DX002 (ip), vehicle: other) was 89 % of control, the T/C (endpoint: mean survival time, dose: 50.0 mg/kg/injection, schedule: Q04DX002 (ip), vehicle: other) was 93 % of control and the T/C (endpoint: mean survival time, dose: 100.0 mg/kg/injection, schedule: Q04DX002 (ip), vehicle: other) was 97 % of control. For the same compound, the T/C (endpoint: mean survival time, dose: 200.0 mg/kg/injection, schedule: Q04DX002 (ip), vehicle: other) was 89 % of control.
`NC(=O)c1cn(C2CCCCC2)c2ncccc12` was tested, and the T/C (endpoint: mean survival time, dose: 100.0 mg/kg/injection, schedule: Q01DX001 (ip), vehicle: saline) was 96 % of control, the T/C (endpoint: mean survival time, dose: 200.0 mg/kg/injection, schedule: Q01DX001 (ip), vehicle: saline) was 96 % of control and the T/C (endpoint: mean survival time, dose: 400.0 mg/kg/injection, schedule: Q01DX001 (ip), vehicle: saline) was 102 % of control.
In the case of `O=P(O)(CO)CO`, the T/C [1] was 95 % of control, the T/C [2] was 101 % of control and the T/C [3] was 95 % of control.
For `COc1ccc(C[As+](c2ccccc2)(c2ccccc2)c2ccccc2)cc1`, the T/C (endpoint: mean survival time, dose: 5.0 mg/kg/injection, schedule: Q01DX001 (ip), vehicle: saline) was 102 % of control, the T/C (endpoint: mean survival time, dose: 10.0 mg/kg/injection, schedule: Q01DX001 (ip), vehicle: saline) was 95 % of control and the T/C (endpoint: mean survival time, dose: 20.0 mg/kg/injection, schedule: Q01DX001 (ip), vehicle: saline) was 98 % of control. For the same compound, the T/C (endpoint: mean survival time, dose: 40.0 mg/kg/injection, schedule: Q01DX001 (ip), vehicle: saline) was 100 % of control.
`COc1cc(OC)c(NC(=O)Nc2ccc(NC(C)=O)cc2)cc1Cl` was tested, and the T/C (endpoint: mean survival time, dose: 12.5 mg/kg/injection, schedule: Q01DX009 (ip), vehicle: saline with Tween-80) was 103 % of control, the T/C (endpoint: mean survival time, dose: 25.0 mg/kg/injection, schedule: Q01DX009 (ip), vehicle: saline with Tween-80) was 103 % of control and the T/C (endpoint: mean survival time, dose: 50.0 mg/kg/injection, schedule: Q01DX009 (ip), vehicle: saline with Tween-80) was 103 % of control.
With `c1nc[nH]n1` the T/C [2] was 98 % of control, the T/C (endpoint: mean survival time, dose: 100.0 mg/kg/injection, schedule: Q04DX003 (ip), vehicle: saline) was 95 % of control and the T/C [3] was 98 % of control. For the same compound, the T/C [4] was 97 % of control, the T/C (endpoint: mean survival time, dose: 400.0 mg/kg/injection, schedule: Q01DX009 (ip), vehicle: saline) was 93 % of control and the T/C (endpoint: mean survival time, dose: 400.0 mg/kg/injection, schedule: Q04DX003 (ip), vehicle: saline) was 100 % of control.
With `Cc1ccc(S(=O)(=O)OCCCCCOS(=O)(=O)c2ccc(C)cc2)cc1` (tested in a mixture with another compound) the T/C (endpoint: mean survival time, dose: 100.0 mg/kg/injection, schedule: Q04DX002 (ip), vehicle: saline with Tween-80) was 102 % of control, the T/C (endpoint: mean survival time, dose: 200.0 mg/kg/injection, schedule: Q04DX002 (ip), vehicle: saline with Tween-80) was 94 % of control and the T/C (endpoint: mean survival time, dose: 400.0 mg/kg/injection, schedule: Q04DX002 (ip), vehicle: saline with Tween-80) was 94 % of control.
`O=C[C@@H](CO)O[C@H](C=O)n1cnc2c(=O)[nH]cnc21` was tested, and the T/C (endpoint: mean survival time, dose: 20.0 mg/kg/injection, schedule: Q01DX009 (ip), vehicle: saline) was 111 % of control, the T/C (endpoint: mean survival time, dose: 40.0 mg/kg/injection, schedule: Q01DX009 (ip), vehicle: saline) was 115 % of control and the T/C (endpoint: mean survival time, dose: 50.0 mg/kg/injection, schedule: Q04DX003 (ip), vehicle: saline) was 114 % of control. For the same compound, the T/C (endpoint: mean survival time, dose: 70.0 mg/kg/injection, schedule: Q01DX001 (ip), vehicle: saline) was 110 % of control, the T/C (endpoint: mean survival time, dose: 80.0 mg/kg/injection, schedule: Q01DX009 (ip), vehicle: saline) was 160 % of control and the T/C (endpoint: mean survival time, dose: 100.0 mg/kg/injection, schedule: Q01DX007 (ip), vehicle: saline) was 156 % of control. The T/C (endpoint: mean survival time, dose: 140.0 mg/kg/injection, schedule: Q01DX001 (ip), vehicle: saline) was 124 % of control, the T/C (endpoint: mean survival time, dose: 160.0 mg/kg/injection, schedule: Q01DX009 (ip), vehicle: saline) was 177 % of control and 182 % of control and the T/C (endpoint: mean survival time, dose: 200.0 mg/kg/injection, schedule: Q01DX007 (ip), vehicle: saline) was 150 % of control. The T/C [3] was 287 % of control, the T/C (endpoint: mean survival time, dose: 200.0 mg/kg/injection, schedule: Q03DX003 (ip), vehicle: saline) was 162 % of control and the T/C [4] was 158 % of control. For the same compound, the T/C (endpoint: median survival time, dose: 38.9 mg/kg/injection, schedule: Q01DX005 (ip), vehicle: saline) was 122 % of control, the T/C (endpoint: median survival time, dose: 39.0 mg/kg/injection, schedule: Q01DX009 (ip), vehicle: clinical formulation) was 122 % of control and the T/C (endpoint: median survival time, dose: 50.0 mg/kg/injection, schedule: Q01DX005 (ip), vehicle: distilled water + Tween-80) was 118 % of control. For the same compound, the T/C (endpoint: median survival time, dose: 89.0 mg/kg/injection, schedule: Q01DX009 (ip), vehicle: clinical formulation) was 173 % of control, the T/C (endpoint: median survival time, dose: 89.0 mg/kg/injection, schedule: Q01DX009 (ip), vehicle: sodium bicarbonate) was 171 % of control and the T/C (endpoint: median survival time, dose: 133.0 mg/kg/injection, schedule: Q01DX009 (ip), vehicle: clinical formulation) was 105 % of control. The T/C (endpoint: median survival time, dose: 133.0 mg/kg/injection, schedule: Q01DX009 (ip), vehicle: sodium bicarbonate) was 163 % of control, the T/C (endpoint: median survival time, dose: 180.0 mg/kg/injection, schedule: Q01DX005 (ip), vehicle: saline) was 170 % of control and the T/C (endpoint: median survival time, dose: 200.0 mg/kg/injection, schedule: Q01DX005 (ip), vehicle: distilled water + Tween-80) was 196 % of control. For the same compound, the T/C (endpoint: median survival time, dose: 300.0 mg/kg/injection, schedule: Q01DX005 (ip), vehicle: saline) was 238 % of control.
